Data published in patent US7723527B2 (Janssen Pharmaceutica NV, priority 2003, dated 2010).

These compounds were tested against T1, human histamine H4 receptor (Homo sapiens, UniProt Q9H3N8) (assay: Binding assay on recombinant human histamine H4 receptor (3H-histamine displacement)). Conditions: competition binding with 3H-histamine; membranes of SK-N-MC or COS7 cells expressing human H4 receptor; Cheng-Prusoff, KD 5 nM, ligand 5 nM.
T1 construct: expressed in transfected cells; host or cells: SK-N-MC cells or COS7 cells, transiently transfected; cell membranes used
T1 sequence (Q9H3N8 whole entry): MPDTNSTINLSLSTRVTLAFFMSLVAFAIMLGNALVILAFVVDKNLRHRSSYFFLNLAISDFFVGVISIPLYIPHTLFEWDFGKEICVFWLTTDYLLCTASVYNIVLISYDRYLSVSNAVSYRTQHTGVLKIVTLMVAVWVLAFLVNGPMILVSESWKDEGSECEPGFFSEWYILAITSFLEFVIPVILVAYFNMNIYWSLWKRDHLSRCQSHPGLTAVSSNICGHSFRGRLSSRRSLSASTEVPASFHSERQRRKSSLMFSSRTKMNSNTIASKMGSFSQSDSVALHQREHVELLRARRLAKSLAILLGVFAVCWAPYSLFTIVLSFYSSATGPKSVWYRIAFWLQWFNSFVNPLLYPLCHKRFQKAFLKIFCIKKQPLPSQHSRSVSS
Procedure: SK—N-MC cells or COS7 cells were transiently transfected with pH4R and grown in 150 cm^2 tissue culture dishes. Cells were washed with saline solution, scraped with a cell scraper and collected by centrifugation (1000 rpm, 5 min). Cell membranes were prepared by homogenization of the cell pellet in 20 mM Tris-HCl with a polytron tissue homogenizer for 10 s at high speed. Homogenate was centrifuged at 1000 rpm for 5 min at 4° C. The supernatant was then collected and centrifuged at 20,000×g for 25 min at 4° C. The final pellet was resuspended in 50 mM Tris-HCl. Cell membranes were incubated with ^3H-histamine (5-70 nM) in the presence or absence of excess histamine (10,000 nM). Incubation occurred at room temperature for 45 min. Membranes were harvested by rapid filtration over Whatman GF/C filters and washed 4 times with ice-cold 50 mM Tris HCl. Filters were then dried, mixed with scintillant and counted for radioactivity. SK—N-MC or COS7 cells expressing human histamine H4 receptor were used to measure the affinity of binding of other compounds and their ability to displace ^3H-ligand binding by incubating the above-described reaction in the presence of various concentrations of inhibitor or compound to be tested.
`Cc1cc(OCCCC2=CCN(C)CC2)ccc1-c1nc2c(C)cc(Cl)cc2[nH]1` [Example 93, 6-Chloro-4-methyl-2-{2-methyl-4-[3-(1-methyl-1,2,3,6-tetrahydro-pyridin-4-yl)-propoxy]-phenyl}-1H-benzoimidazole] was tested, and the Ki was 0.007 µM.
For `CN1CCN(CCCOc2cccc(-c3nc4ccccc4[nH]3)c2)CC1` [Example 55, 2-{3-[3-(4-Methyl-piperazin-1-yl)-propoxy]-phenyl}-1H-benzoimidazole], the Ki was 0.203 µM.
For `Cc1c(F)ccc2[nH]c(-c3ccnc(OCCCCN4CCCN(C)CC4)c3)nc12` [Example 143, 5-Fluoro-4-methyl-2-{2-[4-(4-methyl-[1,4]diazepan-1-yl)-butoxy]-pyridin-4-yl}-1H-benzoimidazole], the Ki was 0.006 µM.
`Cc1ccc2[nH]c(-c3cc(OCCCCC4CCN(C)CC4)ncc3Br)nc2c1C` [Example 132, 2-{5-Bromo-2-[4-(1-methyl-piperidin-4-yl)-butoxy]-pyridin-4-yl}-4,5-dimethyl-1H-benzoimidazole] gave a Ki of 0.005 µM.
`CN1CCC(CCCOc2ccc(-c3nc4cc(Cl)c(F)cc4[nH]3)cc2)CC1` [Example 62, 5-Chloro-6-fluoro-2-{4-[3-(1-methyl-piperidin-4-yl)-propoxy]-phenyl}-1H-benzoimidazole] showed a Ki of 0.051 µM.
For `CN1CCC(CCCCOc2cc(-c3nc4cc(C(C)(C)C)ccc4[nH]3)ccn2)CC1` [Example 135, 5-tert-Butyl-2-{2-[4-(1-methyl-piperidin-4-yl)-butoxy]-pyridin-4-yl}-1H-benzoimidazole], the Ki was 0.047 µM.
In the case of `Cc1cc(Cl)cc2[nH]c(-c3cccc(OCCCCC4CCN(C)CC4)c3)nc12` [Example 98, 5-Chloro-7-methyl-2-{3-[4-(1-methyl-piperidin-4-yl)-butoxy]-phenyl}-1H-benzoimidazole], the Ki is reported as 0.028 µM.
`CN1CCN(CCCOc2ccc(-c3nc4cc(Cl)ccc4[nH]3)cc2F)CC1` [Example 21, 5-Chloro-2-{3-fluoro-4-[3-(4-methyl-piperazin-1-yl)-propoxy]-phenyl}-1H-benzoimidazole] was tested, and the Ki was 0.084 µM.
Work on `Cc1cc(C)c2nc(-c3cccc(OCCCCC4CCN(C)CC4)c3C)[nH]c2c1` [Example 99, 5,7-Dimethyl-2-{2-methyl-3-[4-(1-methyl-piperidin-4-yl)-butoxy]-phenyl}-1H-benzoimidazole] yielded a Ki of 0.038 µM.
Work on `Cc1c(-c2nc3c(C)cccc3[nH]2)ccnc1OCCCCC1CCN(C)CC1` [Example 156, 4-Methyl-2-{3-methyl-2-[4-(1-methyl-piperidin-4-yl)-butoxy]-pyridin-4-yl}-1H-benzoimidazole] yielded a Ki of 0.02 µM.
Compound `Cc1cccc2[nH]c(-c3ccc(OCC(C)CN4CCN(C)CC4)cc3Cl)nc12` (stereo not shown) [Example 17, 2-{2-Chloro-4-[2-methyl-3-(4-methyl-piperazin-1-yl)-propoxy]-phenyl}-4-methyl-1H-benzoimidazole] has a Ki of 0.136 µM.
In the case of `Cc1c(OCCCCC2CCN(C)CC2)cccc1-c1nc2c(C)cc(Cl)cc2[nH]1` [Example 100, 5-Chloro-7-methyl-2-{2-methyl-3-[4-(1-methyl-piperidin-4-yl)-butoxy]-phenyl}-1H-benzoimidazole], the Ki is reported as 0.041 µM.
`Cc1cc(C)c2nc(-c3ccnc(OCCCCC4CCNCC4)c3)[nH]c2c1` [Example 153, 4,6-Dimethyl-2-[2-(4-piperidin-4-yl-butoxy)-pyridin-4-yl]-1H-benzoimidazole] gave a Ki of 0.179 µM.
Work on `Cc1cc(Cl)cc2[nH]c(-c3ccc(OCCCN4CCCN(C)CC4)cc3Cl)nc12` [Example 77, 6-Chloro-2-{2-chloro-4-[3-(4-methyl-[1,4]diazepan-1-yl)-propoxy]-phenyl}-4-methyl-1H-benzoimidazole] yielded a Ki of 0.004 µM.
Work on `CN1CCCN(CCCOc2ccc(-c3nc4cc(C(C)(C)C)ccc4[nH]3)cc2Cl)CC1` [Example 4, 5-tert-Butyl-2-{3-chloro-4-[3-(4-methyl-[1,4]diazepan-1-yl)-propoxy]-phenyl}-1H-benzoimidazole] yielded a Ki of 0.026 µM.
In the case of `CCN1CCC(CCCOc2ccc(-c3nc4c(C)cc(Cl)cc4[nH]3)c(C)c2)CC1` [Example 90, 6-Chloro-2-{4-[3-(1-ethyl-piperidin-4-yl)-propoxy]-2-methyl-phenyl}-4-methyl-1H-benzoimidazole], the Ki is reported as 0.073 µM.
